# Measurements taken from US4992442A, “Pyrrolo(3,2-e)pyrazolo(1,5-a)pyrimidine derivative and medicine comprising the same” (Pola Chemical Industries Inc., Japan, priority 1988, dated 1991).
# How the values were obtained:
# basilar artery [1] = test: Vasodilative activity, Magnus method, dog basilar artery ring contracted with U-46619; conditions: for IC50: Canis lupus familiaris, U-46619 1×10^-7 M, read-out: 50% Contraction-inhibitive Concentrations; for vasodilative activity, times stronger than trapidil: U-46619, relative to trapidil
# Experimental: (§1) Vasodilative activity of the compound of the present invention was measured by the Magnus method.
# (§2) A bastard, male, adult dog weighing about 8-10 kg was anesthetized with pentobarbital sodium (25 mg/kg, i.v.) and killed by bleeding. Its basilar and coronary arteries were immediately extracted. […] Static tensions of the ring were isometrically measured and recorded.
# (§3) Test compounds were accumulatively given to specimens contracted with 1×10^-7 M (final concentration) U-46619 to the final concentration of 1×10^-7 to 1×10^-4 M to investigate their vasodilative activities.
# coronary artery [2] = test: Vasodilative activity, Magnus method, dog coronary artery ring contracted with U-46619; conditions: for IC50: Canis lupus familiaris, U-46619 1×10^-7 M, read-out: 50% Contraction-inhibitive Concentrations; for vasodilative activity, times stronger than trapidil: U-46619, relative to trapidil
# Experimental: as §1, §2, §3
# [3] = Acute toxicity test, oral, mice; conditions: mouse, in vivo, ICR male mice, 14 days observation
# Experimental: An acute toxicity test on compounds of the present invention was performed according to the following method.
# ICR male mice were purchased at 4 weeks of age and fed for 10 days before testing. The test compound suspended in 1% methylcellullose solution was orally administered using a metallic gaster probe at a dose of 0.1 ml (as the test compound) per […] of body weight. The mice were fasted for 15 hours before the administration. Observation was made for 14 days after the administration, and the LD50 value was determined from the survival rate by the Richfield Wilcoxin method.
# basilar artery [4] = test: Vasodilative activity, Magnus method, dog basilar artery contracted with PGF2 α; conditions: Canis lupus familiaris; PGF2 α 5×10^-6 M; read-out: 50% Contraction-inhibitive Concentrations, Basilar Artery, PGF2 α
# Experimental: as §2, §3
# (§4) The vasodilative activity and coronary blood flow increase activity were respectively measured according to the following Methods 1 and 2.
# (§5) The same Magnus method was used as in Experimental Example 1, except that instead of 1×10^-7 M (final concentration) U-46619, 5×10^-6 M (final concentration), PGF2 α or 60 mM potassium chloride was used.
# basilar artery [5] = test: Vasodilative activity, Magnus method, dog basilar artery contracted with potassium chloride; conditions: Canis lupus familiaris; 60 mM potassium chloride; read-out: 50% Contraction-inhibitive Concentrations, Basilar Artery, KCl
# Experimental: as §2, §3, §4, §5
# coronary artery [6] = test: Vasodilative activity, Magnus method, dog coronary artery contracted with PGF2 α; conditions: Canis lupus familiaris; PGF2 α 5×10^-6 M; read-out: 50% Contraction-inhibitive Concentrations, Coronary Artery, PGF2 α
# Experimental: as §2, §3, §4, §5
# coronary artery [7] = test: Vasodilative activity, Magnus method, dog coronary artery contracted with potassium chloride; conditions: Canis lupus familiaris; 60 mM potassium chloride; read-out: 50% Contraction-inhibitive Concentrations, Coronary Artery, KCl
# Experimental: as §2, §3, §4, §5
# coronary blood flow = test: Coronary blood flow increase activity in anesthetized dog; type: in vivo; conditions: maximum flow relative to before administration
# Description: as §4
# The heart was exposed by an incision into pericardium through the left quartus costa rib. About 1 cm of a coronary vessel was peeled off from the surrounding tissues at about 1 cm from the left ramus circumplexus and a blood flow meter probe was installed for measuring the coronary blood flow. Left ventricle pressure, heart rate, right femoral artery pressure, and lower extremity blood flow rate were monitored. All test compounds were intravenously administered.
# The maximum coronary blood flow rates achieved after the administration as a percentage of the blood flow before administration was taken as the coronary blood flow increase activity.
# trachea [8] = test: Tracheal expansion activity against histamine (His) induced tracheal contraction; design: species or system Hartley guinea pig; conditions: for IC50: Cavia porcellus, His 1×10^-6 M, read-out: 50% Contraction-inhibitive Concentration, His Contraction; for Ratio of Effectiveness, His Contraction: reverse ratio of 50% contraction-inhibitive concentration to that of theophylline
# Description: (§6) Tracheal expansion activity against tracheal contraction induced by acetyl choline (ACh) and histamine (His)
# (§7) A Hartley guinea pigs (male, weight: 400-500 g) was killed by bleeding and its trachea was immediately extracted. […] Static tensions was isometrically measured.
# trachea [9] = test: Tracheal expansion activity against acetyl choline (ACh) induced tracheal contraction; design: species or system Hartley guinea pig; conditions: for IC50: Cavia porcellus, ACh 1×10^-6 M, read-out: 50% Contraction-inhibitive Concentration, ACh Contraction; for Ratio of Effectiveness, ACh Contraction: reverse ratio of 50% contraction-inhibitive concentration to that of theophylline
# Description: as §6, §7
SMILES,IC50 (basilar artery [1]) [µM],"vasodilative activity, times stronger than trapidil (basilar artery [1]) [times]",IC50 (coronary artery [2]) [µM],"vasodilative activity, times stronger than trapidil (coronary artery [2]) [times]",LD50 at 336 h [3] [mg/kg],IC50 (basilar artery [4]) [µM],IC50 (basilar artery [5]) [µM],IC50 (coronary artery [6]) [µM],IC50 (coronary artery [7]) [µM],"Rate of Coronary Blood Flow Increase, 50 μg/kg (iv) (coronary blood flow) [%]","Rate of Coronary Blood Flow Increase, 100 μg/kg (iv) (coronary blood flow) [%]",IC50 (trachea [8]) [µM],"Ratio of Effectiveness, His Contraction (trachea [8])",IC50 (trachea [9]) [µM],"Ratio of Effectiveness, ACh Contraction (trachea [9])"
"Cc1nc2c(C#N)c(C)nn2c2c1CCN2C(C)(C)C [Compound No. 2, 8-tert-butyl-3-cyano-6,7-dihydro-2,5-dimethyl-8H-pyrrolo[3,2-e]pyrazolo[1,5-a]pyrimidine]",2.7,37,1.8,35,≥ 2000,–,–,–,–,–,–,–,–,–,–
"CCCCN1CCc2c(C)nc3c(C#N)cnn3c21 [Compound No. 3, 8-butyl-3-cyano-6,7-dihydro-5-methyl-8H-pyrrolo [3,2-e]pyrazolo[1,5-a]pyrimidine]",–,–,–,–,≥ 1000,> 100,34,> 100,> 100,11.5 ± 4.6,37.9 ± 16.3,30,2.1,–,–
"Cc1nc2c(C#N)cnn2c2c1CCN2C(C)(C)C [Compound No. 1, 8-tert-butyl-3-cyano-6,7-dihydro-5-methyl-8H-pyrrolo[3,2-e]pyrazolo[1,5-a]pyrimidine]",2.7,37,1.6,39,≥ 2000,1.6,> 100,1.3,> 100,51.9 ± 11.9,181.6 ± 27.8,1.3,4.9,0.2,25.0
"Cc1nc2c(C#N)cnn2c2c1CCN2C1CCCC1 [Compound No. 8, 3-cyano-8-cyclopentyl-6,7-dihydro-5-methyl-8H-pyrrolo [3,2-e]pyrazolo[1,5-a]pyrimidine]",–,–,–,–,≥ 1000,> 100,> 100,0.2,> 100,–,–,1,6.3,0.13,38.5
"Cn1c(=O)c2[nH]cnc2n(C)c1=O [Theophylline, reference compound]",–,–,–,–,–,–,–,–,–,–,–,6.3,–,5,–
"Cc1nc2c(C#N)cnn2c2c1CCN2CC(C)C [Compound No. 4, 8-iso-butyl-3-cyano-6,7-dihydro-5-methyl-8H-pyrrolo [3,2-e]pyrazolo[1,5-a]pyrimidine]",–,–,–,–,≥ 1000,> 100,43,25,100,20.4 ± 6.3,52.8 ± 21.1,–,–,–,–
"Cc1nc2ccnn2c2c1CCN2C(C)(C)C [Compound No. 11, 8-tert-butyl-6,7-dihydro-5-methyl-8H-pyrrolo[3,2-e]pyrazolo[1,5-a]pyrimidine]",–,–,–,–,≥ 1000,7.9,10,3.2,16,–,–,6.3,1.0,–,–
"Cc1nc2c(C#N)cnn2c2c1CCN2N1CCOCC1 [Compound No. 10, 3-cyano-6,7-dihydro-5-methyl-8-(4-morpholyl)-8H-pyrrolo[3,2-e]yrazolo[1,5-a]pyrimidine]",–,–,–,–,≥ 1000,> 100,> 100,> 100,> 100,–,–,5,1.3,1.3,3.9
"CCC(C)N1CCc2c(C)nc3c(C#N)cnn3c21 (centres unmarked) [Compound No. 5, 8-sec-butyl-3-cyano-6,7-dihydro-5-methyl-8H-pyrrolo [3,2-e]pyrazolo[1,5-a]pyrimidine]",–,–,–,–,≥ 1000,2.5,> 100,3.2,> 100,8.2 ± 3.7,27.3 ± 5.2,0.4,15.8,0.5,10.0
"Cc1nc2c(C#N)cnn2c2c1CCN2CC1CCCCC1 [Compound No. 9, 3-cyano-8-cyclohexylmethyl-6,7-dihydro-5-methyl-8H-pyrrolo[3,2-e]pyrazolo[1,5-a]pyrimidine]",–,–,–,–,≥ 1000,> 100,> 100,> 100,> 100,–,–,–,–,0.79,6.3
"CCCCCN1CCc2c(C)nc3c(C#N)cnn3c21 [Compound No. 6, 3-cyano-6,7-dihydro-5-methyl-8-pentyl-8H-pyrrolo [3,2-e]pyrazolo[1,5-a]pyrimidine]",–,–,–,–,≥ 1000,> 100,> 100,> 100,> 100,7.3 ± 3.1,15.4 ± 5.7,16,0.4,3.2,1.6
"CCCCCCN1CCc2c(C)nc3c(C#N)cnn3c21 [Compound No. 7, 3-cyano-6,7-dihydro-8-hexyl-5-methyl-8H-pyrrolo [3,2-e]pyrazolo[1,5-a]pyrimidine]",–,–,–,–,≥ 1000,> 100,85,> 100,> 100,–,–,13,0.5,6.3,0.8
